# Experimental data: article PMC12305494, “Discovery of PXR Antagonist MI891 and PXR Degrader MI1013 and Their Roles in Hepatic Gene Regulation” (Journal of Medicinal Chemistry, 2025)
# Legend:
# CAR3 variant = biological target: T1, CAR3 variant (Homo sapiens, UniProt Q14994, DEL233-236); test: CAR3 variant luciferase reporter assay; type: cell-based; conditions: at concentrations up to 10 μM
# T1 construct: expressed in transfected cells
# Description: Rhesus monkey, mouse, and rat PXR expression vectors (100 ng/well each) were also obtained from GenScript. […] Carlberg (University of Kuopio, Kuopio, Finland).
# The cells were cultured in DMEM medium (Merck) supplemented with 10% fetal bovine serum.
# PXR = biological target: T2, PXR (Homo sapiens, UniProt O75469); conditions: HepG2, rifampicin 1 or 5 μM
# T2 sequence (O75469 1-434): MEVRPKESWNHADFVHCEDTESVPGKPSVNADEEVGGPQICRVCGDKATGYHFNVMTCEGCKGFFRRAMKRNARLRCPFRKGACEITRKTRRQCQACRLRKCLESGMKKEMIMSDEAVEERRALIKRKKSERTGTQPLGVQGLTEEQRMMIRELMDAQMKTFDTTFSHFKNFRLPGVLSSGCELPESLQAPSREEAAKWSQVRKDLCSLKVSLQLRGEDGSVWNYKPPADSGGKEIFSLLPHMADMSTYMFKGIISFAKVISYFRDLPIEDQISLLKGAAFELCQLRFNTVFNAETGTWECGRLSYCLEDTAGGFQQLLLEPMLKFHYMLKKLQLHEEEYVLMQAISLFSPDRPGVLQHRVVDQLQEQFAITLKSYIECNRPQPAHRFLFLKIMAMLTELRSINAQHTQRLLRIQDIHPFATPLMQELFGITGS
# Description: The PXR activity was assessed as the PXR-dependent transcriptional activation using the construct. […] The control vector pRL-TK (Promega) constitutively expresses Renilla luciferase. […] Transient transfection experiments followed published protocols used in our laboratory and described before. , Luciferase reporter assays were conducted to evaluate interactions with PXR or CAR and their variants in HepG2, or COS-1. Cells were seeded at a density of 40,000 cells/cm^2 in 48-well plates (ThermoFisher Scientific) and maintained at 37 °C in a humidified atmosphere with 5% CO2. […] Following seeding, HepG2 cells were transfected with 150 ng/well of a luciferase reporter construct and 100 ng/well of a nuclear receptor expression vector using Lipofectamine 3000 (ThermoFisher Scientific) and with pRL-TK (30 ng/well) serving as the normalization control. After 24 h, cells were treated with test compounds for 24 h before cell lysis and subsequent firefly and Renilla luciferase activity analysis using the Dual-Glo Luciferase Assay System (Promega). […] The activities of test compounds were normalized to the respective controls to determine % activation or inhibition.
# GSPT1 = biological target: T3, GSPT1 (Homo sapiens, UniProt P15170); test: Western blot of GSPT1 in HepaRG cells; type: cell-based; conditions: 24 h
# T3 construct: GSPT1 protein expression in HepaRG cells treated with different concentrations of MI1013 and MI1155 for 24 h; endogenous in cells; host or cells: HepaRG
# T3 sequence (Q96SW2 whole entry partner): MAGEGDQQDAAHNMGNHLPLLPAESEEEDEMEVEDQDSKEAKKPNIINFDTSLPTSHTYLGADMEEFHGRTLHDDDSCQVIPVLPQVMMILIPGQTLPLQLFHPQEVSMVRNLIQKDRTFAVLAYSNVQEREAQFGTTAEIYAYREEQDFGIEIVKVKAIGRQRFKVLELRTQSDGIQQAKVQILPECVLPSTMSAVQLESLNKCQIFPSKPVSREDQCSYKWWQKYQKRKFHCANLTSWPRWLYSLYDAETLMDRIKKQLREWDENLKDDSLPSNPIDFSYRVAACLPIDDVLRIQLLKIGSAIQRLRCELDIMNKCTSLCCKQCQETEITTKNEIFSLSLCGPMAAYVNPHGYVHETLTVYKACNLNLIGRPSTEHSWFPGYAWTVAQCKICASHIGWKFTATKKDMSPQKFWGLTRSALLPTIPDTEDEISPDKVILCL
# T3 sequence (P15170 whole entry): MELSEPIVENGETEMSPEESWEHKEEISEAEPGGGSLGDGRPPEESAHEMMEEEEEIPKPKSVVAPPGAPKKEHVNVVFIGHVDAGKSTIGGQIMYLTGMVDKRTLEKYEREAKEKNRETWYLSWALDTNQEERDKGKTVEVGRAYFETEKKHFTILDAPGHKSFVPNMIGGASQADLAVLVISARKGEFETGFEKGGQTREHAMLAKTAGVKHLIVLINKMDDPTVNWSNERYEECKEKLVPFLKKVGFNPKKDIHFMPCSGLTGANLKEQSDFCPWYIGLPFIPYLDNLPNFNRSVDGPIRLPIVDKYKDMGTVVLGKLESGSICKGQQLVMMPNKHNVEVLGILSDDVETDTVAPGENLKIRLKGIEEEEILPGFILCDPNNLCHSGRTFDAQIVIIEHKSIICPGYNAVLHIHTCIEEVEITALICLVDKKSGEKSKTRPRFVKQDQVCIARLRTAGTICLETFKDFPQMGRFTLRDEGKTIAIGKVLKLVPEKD
# Description: The harvested HepaRG cells were lysed in RIPA lysis buffer (Cat. no 89900, Thermo Scientific) containing Halt protease inhibitor cocktail inhibitors (Thermo Scientific). Protein concentration was measured using the Pierce BCA Protein Assay Kit (Cat. no. 23225, Thermo Scientific), samples were diluted in 4 × Laemmli sample buffer (Cat. no. 1610747, BioRad) supplemented with mercaptoethanol and heated at 95 °C for 5 min. Equal amounts of protein were loaded in 4–20% Mini-PROTEAN TGX Stain-Free Protein Gels (12 well. cat. no. 4561095 or 15 well, cat. no. 4568096, Bio-Rad), electrophorised, and transferred onto Trans-Blot Turbo Midi-size PVDF Membrane (cat. no. 1704273, Bio-Rad), and blocked with EveryBlot Blocking buffer for 10 min (cat. no. 12010020, Bio-Rad). […] Chemiluminescence signals were detected using SuperSignal West Femto Maximum Sensitivity Substrate (cat. no. 34096, Thermo Scientific) and visualized by the ChemiDoc MP Imaging system (Universal Hood III, #731BR02821, Bio-Rad), and the bands were quantified using β-actin (1:2000, recombinant rabbit conjugated monoclonal antibody (JF53-10), cat. no. MA5-32540, Invitrogen) as loading control with ImageJ (version 1.54g) software.
# PXR-HiBiT = biological target: T4, PXR-HiBiT (Homo sapiens, UniProt O75469+Q96SW2); test: Nano-Glo HiBiT lytic assay in HepG2 cells; type: cell-based; conditions: HepG2, 10 μM, 8 h, 0.3 ng PXR-HiBiT vector
# T4 construct: host or cells: HepG2
# T4 sequence (Q96SW2 whole entry, one chain of several): as the sequence (Q96SW2 whole entry partner) above
# Description: For HiBiT assay, HepG2 cells (40,000 cells/well) were seeded in a 48-well plate. The following day, cells were transfected with 0.3–100 ng of PXR-HiBiT (GenScript-HiBiT_NR1I2_OHu23779D_pcDNA3.1+/C-(K)-DYK) and 0.3–100 ng of CRBN (GenScript-CRBN_OHu21180D_pcDNA3.1+/C-(K)-DYK) in a 1:1 ratio using Lipofectamine 3000 (ThermoFisher Scientific), following the manufacturer’s protocol. After 24 h, cells were treated with varying concentrations of MI1013, and vehicle (0.1% DMSO). The plates were incubated for 8 h, and the HiBiT NanoLuc signal was measured using the Nano-Glo HiBiT Lytic Detection System (Promega; […]) in a Synergy microplate reader (Biotek) under luminescence mode with a read time of 0.2 s/well, gain set as auto, and integration time 2 s. Results are reported as relative abundance or response (%) change relative to DMSO control cells. […] The DC50 value was calculated using a curve fit–log(inhibitor) vs response–with a variable slope (four-parameter) logistic fitting using GraphPad Prism.
# T1 sequence (Q14994 with tags, fused parts or gaps isoform Q14994-8 DEL233-236): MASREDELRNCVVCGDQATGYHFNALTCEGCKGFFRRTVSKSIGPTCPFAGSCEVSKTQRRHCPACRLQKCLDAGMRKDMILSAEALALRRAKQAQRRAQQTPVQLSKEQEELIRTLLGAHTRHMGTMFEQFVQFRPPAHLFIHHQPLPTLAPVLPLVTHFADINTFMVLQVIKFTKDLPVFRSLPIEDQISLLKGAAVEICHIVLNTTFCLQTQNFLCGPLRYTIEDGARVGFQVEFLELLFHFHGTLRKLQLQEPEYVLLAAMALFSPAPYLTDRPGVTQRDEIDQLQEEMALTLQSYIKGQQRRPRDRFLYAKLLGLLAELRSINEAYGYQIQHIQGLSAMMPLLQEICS
# T1 sequence (P19793 whole entry partner): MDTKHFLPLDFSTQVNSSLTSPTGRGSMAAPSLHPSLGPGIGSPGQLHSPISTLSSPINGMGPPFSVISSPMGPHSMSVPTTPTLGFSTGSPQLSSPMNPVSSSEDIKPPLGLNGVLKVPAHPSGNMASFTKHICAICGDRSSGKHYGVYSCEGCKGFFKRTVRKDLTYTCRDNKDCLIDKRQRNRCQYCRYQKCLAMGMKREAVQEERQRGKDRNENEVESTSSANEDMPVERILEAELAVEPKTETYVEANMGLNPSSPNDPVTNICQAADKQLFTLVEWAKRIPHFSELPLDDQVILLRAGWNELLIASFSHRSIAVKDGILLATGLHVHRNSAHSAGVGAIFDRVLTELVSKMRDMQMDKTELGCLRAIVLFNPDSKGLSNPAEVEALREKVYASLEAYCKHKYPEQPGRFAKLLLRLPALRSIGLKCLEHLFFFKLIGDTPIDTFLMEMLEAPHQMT
Molecule,activation of CAR3 variant (CAR3 variant),inhibition of PXR activation by rifampicin (PXR),GSPT1 degradation (GSPT1),PXR-HiBiT degradation (PXR-HiBiT)
"NC(=O)c1cc(Cn2cc(-c3c(-c4ccc(Cl)cc4)nc4c(F)cc(F)cn34)nn2)ccc1Cl [Compound 11, 2-Chloro-5-((4-(2-(4-chlorophenyl)-6,8-difluoroimidazo[1,2-a]pyridin-3-yl)-1H-1,2,3-triazol-1-yl)methyl)-benzamide]",no significant activation,,,
"N-(4-((1-(2,5-dimethoxyphenyl)-5-methyl-1H-1,2,3-triazol-4-yl)sulfonyl)phenyl)-3-(2-(2-(2-(4-(((2-(2,6-dioxopiperidin-3-yl)-1,3-dioxoisoindolin-4-yl)amino)methyl)-1H-1,2,3-triazol-1-yl)ethoxy)ethoxy)ethoxy)propenamide [Compound 36]",,concentration-dependent inhibition of PXR activation by rifampicin,does not degrade,confirmed PXR degradation
